What all share (format): biochemical
For one assay, the target named is T1, TACE (Homo sapiens, UniProt P78536).
T1 construct: purchased Immunex
Kind of assay: Procedure for Measuring TACE Inhibition. Conditions: for inhibition at 1 µM: read-out: TACE % inhibition at 1 micromolar; for IC50: read-out: TACE IC 50. The method, boiled down: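 Single-concentration screen: test compound at 1 µM final, 10-min room-temperature preincubation with 1 µg/mL protease in Tris pH 7.4 buffer containing glycerol. Initial rate from linear fluorescence increase (340/420 nm) over 10 min after adding 100 µM peptidyl substrate; significance versus control rate by Dunnett's test.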

The next assay addresses T2, MMP 1 (Homo sapiens, UniProt P03956).
T2 construct: human recombinant fibroblast collagenase (truncated, mw= 18,828, WAR, Radnor)
T2 sequence (P03956 100-269 limits assumed): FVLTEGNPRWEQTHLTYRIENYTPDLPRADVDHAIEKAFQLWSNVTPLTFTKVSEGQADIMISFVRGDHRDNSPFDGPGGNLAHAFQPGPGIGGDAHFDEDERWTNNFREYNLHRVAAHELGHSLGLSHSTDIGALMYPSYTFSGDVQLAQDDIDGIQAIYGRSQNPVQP
Kind of assay: In Vitro Collagenase Assay. The procedure, abridged: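 Collagenase (5 nM final) cleaves the quenched fluorogenic peptide Dnp-Pro-Cha-Gly-Cys(Me)-His-Ala-Lys(NMa)-NH2 (10 µM final) in HCBC buffer. Solvent is below 1.0%, and the reaction is started with substrate. Rate is taken from the fluorescence slope (r^2 >0.85), and drug-treated rates are compared with control by Dunnett's test.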

For the next assay, the target named is T3, MMP 9 (Homo sapiens, UniProt P14780).
T3 construct: from tissue; host or cells: human neutrophils
Kind of assay: In Vitro Gelatinase Assay. Conditions: human neutrophil gelatinase B; for IC50: read-out: MMP 9 IC 50. The procedure, abridged: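 Human MMP-9 cleaves thiopeptide Ac-Pro-Leu-Gly(2-mercapto-4-methyl-pentanoyl)-Leu-Gly-OEt, with the released thiol reacting with DTNB. Substrate and DTNB were diluted together to 1 mM in 50 mM HEPES pH 7.5, 5 mM CaCl2. Rate came from the OD405 slope (r^2 >0.85), compared with control by Dunnett's test.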

Another assay deals with MMP 13 (Homo sapiens, UniProt P45452). Put plainly: MMP 13 inhibition (IC50 / manual assay; method not described).
Where [1] appears, read: human recombinant fibroblast collagenase, read-out: MMP 1 IC 50.

Like-named read-outs stand apart in the source and are kept apart here.

T1 sequence (P78536 215-824): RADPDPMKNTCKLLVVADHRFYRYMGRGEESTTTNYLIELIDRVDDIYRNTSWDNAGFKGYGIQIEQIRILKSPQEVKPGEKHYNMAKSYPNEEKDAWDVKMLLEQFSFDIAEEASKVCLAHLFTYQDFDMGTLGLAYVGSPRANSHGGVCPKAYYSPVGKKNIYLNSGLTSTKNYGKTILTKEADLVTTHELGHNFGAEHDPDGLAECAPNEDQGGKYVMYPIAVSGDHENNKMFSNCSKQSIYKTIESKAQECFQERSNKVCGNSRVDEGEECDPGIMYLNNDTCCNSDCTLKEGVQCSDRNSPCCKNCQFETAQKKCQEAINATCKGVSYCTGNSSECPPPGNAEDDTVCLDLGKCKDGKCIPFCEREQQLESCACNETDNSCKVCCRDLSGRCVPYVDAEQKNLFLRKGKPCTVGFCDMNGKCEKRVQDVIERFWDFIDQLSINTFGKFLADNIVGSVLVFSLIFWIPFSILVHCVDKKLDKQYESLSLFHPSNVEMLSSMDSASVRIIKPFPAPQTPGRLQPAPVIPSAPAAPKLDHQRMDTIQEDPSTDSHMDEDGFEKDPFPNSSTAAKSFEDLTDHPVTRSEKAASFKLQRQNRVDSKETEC
T3 sequence (P14780 94-707): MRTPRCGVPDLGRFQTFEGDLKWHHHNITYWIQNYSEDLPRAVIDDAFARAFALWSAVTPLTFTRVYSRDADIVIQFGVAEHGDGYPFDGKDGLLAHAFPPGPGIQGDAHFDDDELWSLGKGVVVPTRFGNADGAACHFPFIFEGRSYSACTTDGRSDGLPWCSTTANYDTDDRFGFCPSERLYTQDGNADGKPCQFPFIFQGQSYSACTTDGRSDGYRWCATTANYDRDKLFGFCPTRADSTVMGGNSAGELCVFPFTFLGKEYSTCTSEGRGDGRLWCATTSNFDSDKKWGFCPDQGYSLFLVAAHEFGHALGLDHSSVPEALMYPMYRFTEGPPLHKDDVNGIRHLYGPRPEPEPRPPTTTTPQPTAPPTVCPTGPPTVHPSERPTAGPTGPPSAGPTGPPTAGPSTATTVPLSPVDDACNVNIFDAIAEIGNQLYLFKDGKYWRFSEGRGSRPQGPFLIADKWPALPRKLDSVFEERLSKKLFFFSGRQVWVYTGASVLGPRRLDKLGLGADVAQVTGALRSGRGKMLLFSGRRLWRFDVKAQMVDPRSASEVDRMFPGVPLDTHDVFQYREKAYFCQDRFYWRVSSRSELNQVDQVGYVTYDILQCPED

Take `CCCCCC#CCC(CC#CCCCCC)(C(=O)NO)S(=O)(=O)c1ccc(OC)cc1` [Example 71, 2-(4-methoxy-benzenesulfonyl)-2-oct-2-ynyl-dec-4-ynoic acid hydroxyamide]: the inhibition at 1 µM on TACE stood at 42.2%. For the same compound, the IC50 was 1 µM at MMP 1 (setting [1]), 0.063 µM at MMP 9 and 0.013 µM at MMP 13 (read-out: MMP 13 IC 50).
On to `CC#CCC(CC#CC)(C(=O)NO)S(=O)(=O)c1ccc(OC)cc1` [Example 72, 2-(4-Methoxy-benzenesulfonyl)-2-but-2-ynyl-hex-4-ynoic acid hydroxyamide], for which, on TACE, the inhibition at 1 µM is 51.6%. Moreover, the results for the IC50 at MMP 1 (setting [1]), at MMP 9 and on MMP 13 (read-out: MMP 13 IC 50) were 0.117 µM, 0.011 µM and 0.001 µM, respectively.
On the same counts, the results for `CCCCCC#CCC(Cc1cccnc1)(C(=O)NO)S(=O)(=O)c1ccc(OC)cc1` (stereo not drawn) [Example 74, 2-(4-Methoxy-benzenesulfonyl)-2-pyridin-3-ylmethyl-dec-4-ynoic acid hydroxyamide] are 47.9%, 0.138 µM, 0.0092 µM and 0.0043 µM.
For `C#CCC(Cc1cccnc1)(C(=O)NO)S(=O)(=O)c1ccc(OC)cc1` (stereo not drawn) [Example 75, 2-(4-Methoxy-benzenesulfonyl)-2-pyridin-3-ylmethyl-pent-4-ynoic acid hydroxyamide], in that order: 23.8%, 0.672 µM, 0.0834 µM and 0.0327 µM.
In the case of `CCCCCC(Sc1ccc(OC)cc1)C(=O)NO` (stereo not drawn) [Example 80, 2-(4-methoxy-phenylsulfanyl)-heptanoic acid hydroxyamide], the IC50 on TACE was found to be 0.191 µM. The inhibition at 1 µM at MMP 1 (read-out: MMP 1 % inhibition at 1 micromolar, 1 micromolar, human recombinant fibroblast collagenase) was determined as 22.1%; on MMP 9 (read-out: MMP 9 % inhibition at 1 micromolar, 1 micromolar), 26%; at MMP 13 (read-out: MMP 13 % inhibition at 1 micromolar) it was 63.6%.
Take `COc1ccc(S(=O)(=O)C2(C(=O)NO)CCN(Cc3ccccc3)CC2)cc1` [Example 83, 1-Benzyl-4-(4-methoxy-benzenesulfonyl)-piperidine-4-carboxylic Acid hydroxyamide]: the IC50 worked out at 0.229 µM on TACE, 0.492 µM on MMP 1 (setting [1]), 0.0102 µM on MMP 9 and 0.002 µM at MMP 13 (read-out: MMP 13 IC 50).
As to `COc1ccc(S(=O)(=O)C2(C(=O)NO)CCN(Cc3cccc(OC)c3)CC2)cc1` [Example 84, 4-(4-methoxy-benzenesulfonyl)-1-(3-methoxy-benzyl)-piperidine-4-carboxylic acid hydroxyamide], the IC50 at TACE worked out at 0.213 µM; on MMP 1 (setting [1]), 0.519 µM; on MMP 9, 0.0088 µM; on MMP 13 (read-out: MMP 13 IC 50) it was 0.002 µM.
On the same counts, the results for `COc1ccc(S(=O)(=O)C2(C(=O)NO)CCN(Cc3ccc(Cl)c(Cl)c3)CC2)cc1` [Example 85, 1-(3,4-dichlorobenzyl) -4-(4-methoxy-benzenesulfonyl)-piperidine-4-carboxylic acid hydroxamide] are 0.115 µM, 0.45 µM, 0.0058 µM and 0.0015 µM.
On the same counts, the results for `COc1ccc(S(=O)(=O)C2(C(=O)NO)CCN(Cc3ccc(C)cc3)CC2)cc1` [Example 86, 4-(4-methoxy-benzenesulfonyl)-1-(4-methylbenzyl)-piperidine-4-carboxylic acid hydroxamide] are 0.222 µM, 0.494 µM, 0.0168 µM and 0.0015 µM.
With `COc1ccc(S(=O)(=O)C2(C(=O)NO)CCN(CC=C(C)C)CC2)cc1` [Example 89, 4-(4-methoxy-benzene-sulfonyl)-1-(3-methyl-but-2-enyl)piperidine-4-carboxylic acid hydroxamide], the inhibition at 1 µM on TACE was found to be 49%. The IC50 at MMP 1 (setting [1]) was 1.39 µM; on MMP 9, 0.0386 µM; at MMP 13 (read-out: MMP 13 IC 50), 0.007 µM.
With `COc1ccc(S(=O)(=O)C2(C(=O)NO)CCN(Cc3ccc(F)cc3)CC2)cc1` [Example 99, 1-(4-Fluoro-benzyl)-4-(4-methoxy-benzenesulfonyl)-piperidine-4-carboxylic acid hydroxyamide], the IC50 was found to be 0.25 µM at TACE, 0.656 µM on MMP 1 (setting [1]), 0.0162 µM on MMP 9 and 0.0024 µM on MMP 13 (read-out: MMP 13 IC 50).
For the compound `COc1ccc(CCN2CCC(C(=O)NO)(S(=O)(=O)c3ccc(OC)cc3)CC2)cc1` [Example 102, 4-(4-methoxy-benzenesulfonyl)-1-[2-(4-methoxyphenyl)-ethyl]-piperidine-4-carboxylic acid hydroxyamide], the inhibition at 1 µM at TACE was found to be 53%. Further, the IC50 on MMP 1 (setting [1]) turned out to be 0.662 µM; on MMP 9, 0.0337 µM; at MMP 13, 0.0019 µM.
Turning to `COc1ccc(S(=O)(=O)C2(C(=O)NO)CCN(CCCOc3ccccc3)CC2)cc1` [Example 105, 4-(4-Methoxy-benzenesulfonyl)-1-(3-phenoxy-propyl)-piperidine-4-carboxylic acid hydroxyamide], the inhibition at 1 µM on TACE was found to be 50.2%. Moreover, the IC50 at MMP 1 (setting [1]) was 1.21 µM; on MMP 9, 0.0442 µM; at MMP 13 (read-out: MMP 13 IC 50) it was 0.0041 µM.
`COc1ccc(S(=O)(=O)C2(C(=O)NO)CCN(CCOc3ccccc3)CC2)cc1` [Example 107, 4-(4-methoxy-benzenesulfonyl)-1-(2-phenoxy-ethyl)-piperidine-4-carboxylic acid hydroxyamide]: the IC50 on TACE came to 0.293 µM; at MMP 1 (setting [1]), 0.629 µM; on MMP 9 it was 0.0268 µM; on MMP 13 (read-out: MMP 13 IC 50) it was 0.0025 µM.
As for `COc1ccc(S(=O)(=O)C2(C(=O)NO)CCN(Cc3ccc(OCCN4CCCCC4)cc3)CC2)cc1` [Example 109, 4-(4-Methoxy-benzenesulfonyl)-1-[4-(2-piperidin-1-yl-ethoxy)-benzyl]-piperidine-4-carboxylic acid hydroxyamide], the IC50 stood at 0.386 µM at TACE, 0.393 µM on MMP 1, 0.0027 µM on MMP 9 and 0.0025 µM on MMP 13 (read-out: MMP 13 IC 50).

For orientation: inhibition means how much of the control response was suppressed.

(Values after patent publication EP0970046B1, “N-HYDROXY-2-(ALKYL, ARYL, OR HETEROARYL SULFANYL, SULFINYL OR SULFONYL)-3-SUBSTITUTED ALKYL, ARYL OR HETEROARYLAMIDES AS MATRIX METALLOPROTEINASE INHIBITORS” (Wyeth Holdings Corporation, priority 1997, dated 1998).)
